Reference: patent publication US20240408140A1, “ENHANCING ANTICANCER FUNCTION OF NATURAL KILLER CELL THROUGH REGULATION OF ANTIOXIDANT MECHANISM” (priority 2021, published 2024)

Test system: Yac-1 cell line
Assay: Cytotoxicity of NK cells cultured in NK cell activation medium including antioxidants, co-culture with Yac-1 cells
Details: mouse spleen NK cells cultured 30-60 minutes in medium with 1 mM N-acetylcysteine or 0.5 mM TEMPOL; compared with normal NK cells (control) (FIG. 6)
Description: NK cell activation media were prepared as follows. In an NK cell culture medium obtained by mixing 10% FBS, 1× penicillin/streptomycin, 1× glutamax, 1× HEPES, 0.5 mM sodium pyruvate, 50 μM 2-mercaptoethanol, and 50 ng/ml interleukin-2 (IL-2) in RPMI1640 medium, 1 mM N-acetylcysteine or 0.5 mM 4-hydroxy-2,2,6,6-tetramethylpiperidine 1-oxyl (TEMPOL) was blended.
The Yac-1 cell line was added in RPMI1640 (10% FBS/RPMI1640) medium including 10% FBS, treated with 5 μg/ml Calcein AM (Invitrogen, C1430), and cultured for 1 hour in a cell culture machine at 37° C. in the presence of 5% carbon dioxide conditions to label with fluorescence. Afterwards, the NK cells and fluorescence-labeled Yac-1 cells were mixed in a ratio of 10:1, 5:1, and 1:1 and dispensed in a round bottom 96-well plate (SPL, #34096). Additionally, fluorescence-labeled Yac-1 cells were also dispensed into the wells of the maximum (Maximum, 10% FBS/RPMI1640 including 2% Triton X-100) and minimum (Minimum, 10% FBS/RPMI1640) to calculate the cytotoxicity rate. […] After culture for 4 hours, the medium was mixed well and centrifuged at 100×g for 5 minutes, the supernatant was transferred to a black plate (SPL, #30296), and fluorescence was measured using a fluorescence microplate reader. […]
Cytotoxicity=[(Test fluorescence−minimum fluorescence)/(maximum fluorescence−minimum fluorescence)]×100 [Equation 1] […]

CC1(C)CC(O)CC(C)(C)N1[O] [Tempol, 4-hydroxy-2,2,6,6-tetramethylpiperidine 1-oxyl]
cytotoxicity: higher cytotoxicity than normal NK cells
